ChEMBL document CHEMBL1201862, “PubChem BioAssay data set” (2004)
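Cells were grown in 96-well plates and exposed to each compound for 48 hours at five concentrations; endpoints were interpolated linearly between bracketing concentrations, or set to the highest concentration if not reached. Abbreviation: GI50, concentration required for 50% inhibition of growth.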 Activity calls are given as the source filed them. Rule as the data show it: active = GI50 up to about 1.1 µM and inactive = higher.

How the values were obtained:
Experiment in all cases: NCI anticancer screen, dose series, 48 h
UACC-257 = system: UACC-257
HOP-92 = system: HOP-92
EKVX = system: EKVX
LXFL 529 = system: LXFL 529
DMS-114 = system: DMS-114
CCRF-CEM = system: CCRF-CEM
SK-OV-3 = system: SK-OV-3
HL-60 = system: HL-60
HCT-116 = system: HCT-116
KM12 = system: KM12
NCI-H226 = system: NCI-H226
RXF 393 = system: RXF 393
TK-10 = system: TK-10
SF-539 = system: SF-539
RPMI-8226 = system: RPMI-8226
LOX IMVI = system: LOX IMVI
786-0 = system: 786-0
HT-29 = system: HT-29
U-251 = system: U-251
DLD-1 = system: DLD-1
COLO 205 = system: COLO 205
SK-MEL-28 = system: SK-MEL-28
UO-31 = system: UO-31
M19-MEL = system: M19-MEL
SW-620 = system: SW-620
HOP-62 = system: HOP-62
IGROV-1 = system: IGROV-1
SNB-78 = system: SNB-78
OVCAR-8 = system: OVCAR-8
UACC-62 = system: UACC-62
DMS-273 = system: DMS-273
OVCAR-3 = system: OVCAR-3
A549 = system: A549
MOLT-4 = system: MOLT-4
K562 = system: K562
Malme-3M = system: Malme-3M
SK-MEL-2 = system: SK-MEL-2
M14 = system: M14
OVCAR-4 = system: OVCAR-4
KM-20L2 = system: KM-20L2
A498 = system: A498
HCC 2998 = system: HCC 2998
SNB-75 = system: SNB-75
SK-MEL-5 = system: SK-MEL-5
HOP-18 = system: HOP-18
ACHN = system: ACHN
NCI-H460 = system: NCI-H460
SF-295 = system: SF-295
SNB-19 = system: SNB-19
NCI-H23 = system: NCI-H23
NCI-H522 = system: NCI-H522
SN12C = system: SN12C
HCT-15 = system: HCT-15
OVCAR-5 = system: OVCAR-5
SR = system: SR
SF-268 = system: SF-268
CAKI-1 = system: CAKI-1

Structure (SMILES): O=C(c1ccccc1)N1CCN2CCN=C(c3ccccc3)C21c1ccccc1 (stereo not drawn)
- GI50 (UACC-257): 25.8 µM (inactive)
- GI50 (HOP-92): 17.1 µM (inactive)
- GI50 (EKVX): 70.8 µM (inactive)
- GI50 (LXFL 529): 97.9 µM (inactive)
- GI50 (DMS-114): 30.5 µM (inactive)
- GI50 (CCRF-CEM): 61.9 µM (inactive)
- GI50 (SK-OV-3): > 100 µM (inactive)
- GI50 (HL-60): 19.2 µM (inactive)
- GI50 (HCT-116): 48.2 µM (inactive)
- GI50 (KM12): > 100 µM (inactive)
- GI50 (NCI-H226): 19.5 µM (inactive)
- GI50 (RXF 393): 45.5 µM (inactive)
- GI50 (TK-10): > 100 µM (inactive)
- GI50 (SF-539): 71.3 µM (inactive)
- GI50 (RPMI-8226): 25.5 µM (inactive)
- GI50 (LOX IMVI): > 100 µM (inactive)
- GI50 (786-0): > 100 µM (inactive)
- GI50 (HT-29): > 100 µM (inactive)
- GI50 (U-251): > 100 µM (inactive)
- GI50 (DLD-1): 91 µM (inactive)
- GI50 (COLO 205): > 100 µM (inactive)
- GI50 (SK-MEL-28): > 100 µM (inactive)
- GI50 (UO-31): 22.8 µM (inactive)
- GI50 (M19-MEL): 81.7 µM (inactive)
- GI50 (SW-620): > 100 µM (inactive)
- GI50 (HOP-62): > 100 µM (inactive)
- GI50 (IGROV-1): > 100 µM (inactive)
- GI50 (SNB-78): > 100 µM (inactive)
- GI50 (OVCAR-8): > 100 µM (inactive)
- GI50 (UACC-62): 18.1 µM (inactive)
- GI50 (DMS-273): > 100 µM (inactive)
- GI50 (OVCAR-3): 79.1 µM (inactive)
- GI50 (A549): 95.3 µM (inactive)
- GI50 (MOLT-4): 20.2 µM (inactive)
- GI50 (K562): 29.1 µM (inactive)
- GI50 (Malme-3M): 35.5 µM (inactive)
- GI50 (SK-MEL-2): > 100 µM (inactive)
- GI50 (M14): 61.2 µM (inactive)
- GI50 (OVCAR-4): 29.4 µM (inactive)
- GI50 (KM-20L2): 70.6 µM (inactive)
- GI50 (A498): > 100 µM (inactive)
- GI50 (HCC 2998): > 100 µM (inactive)
- GI50 (SNB-75): 51.3 µM (inactive)
- GI50 (SK-MEL-5): > 100 µM (inactive)
- GI50 (HOP-18): > 100 µM (inactive)
- GI50 (ACHN): 63.1 µM (inactive)
- GI50 (NCI-H460): 94.8 µM (inactive)
- GI50 (SF-295): 52.1 µM (inactive)
- GI50 (SNB-19): 38 µM (inactive)
- GI50 (NCI-H23): 80.2 µM (inactive)

Structure (SMILES): NC1=NS(=O)(=O)Nc2nc(-c3ccc(Cl)cc3)[nH]c21
- GI50 (HOP-92): 88.1 µM (inactive)
- GI50 (LXFL 529): > 100 µM (inactive)
- GI50 (DMS-114): > 100 µM (inactive)
- GI50 (NCI-H522): > 100 µM (inactive)
- GI50 (CCRF-CEM): > 100 µM (inactive)
- GI50 (SK-OV-3): > 100 µM (inactive)
- GI50 (HL-60): > 100 µM (inactive)
- GI50 (SN12C): > 100 µM (inactive)
- GI50 (HCT-116): > 100 µM (inactive)
- GI50 (KM12): > 100 µM (inactive)
- GI50 (RXF 393): > 10 µM (inactive)
- GI50 (TK-10): > 100 µM (inactive)
- GI50 (SF-539): > 100 µM (inactive)
- GI50 (HCT-15): > 100 µM
- GI50 (RPMI-8226): > 100 µM (inactive)
- GI50 (LOX IMVI): > 100 µM (inactive)
- GI50 (786-0): > 100 µM (inactive)
- GI50 (HT-29): > 100 µM (inactive)
- GI50 (U-251): > 100 µM (inactive)
- GI50 (DLD-1): > 100 µM (inactive)
- GI50 (COLO 205): > 100 µM (inactive)
- GI50 (SK-MEL-28): > 100 µM (inactive)
- GI50 (UO-31): > 100 µM (inactive)
- GI50 (M19-MEL): > 100 µM (inactive)
- GI50 (SW-620): > 100 µM (inactive)
- GI50 (HOP-62): > 100 µM (inactive)
- GI50 (IGROV-1): > 100 µM (inactive)
- GI50 (OVCAR-8): > 100 µM (inactive)
- GI50 (UACC-62): > 100 µM (inactive)
- GI50 (DMS-273): > 100 µM (inactive)
- GI50 (OVCAR-3): > 100 µM (inactive)
- GI50 (A549): > 100 µM (inactive)
- GI50 (MOLT-4): > 100 µM (inactive)
- GI50 (OVCAR-5): > 100 µM (inactive)
- GI50 (K562): > 100 µM (inactive)
- GI50 (Malme-3M): > 100 µM (inactive)
- GI50 (SR): > 100 µM (inactive)
- GI50 (SK-MEL-2): > 100 µM (inactive)
- GI50 (M14): > 100 µM (inactive)
- GI50 (OVCAR-4): > 100 µM (inactive)
- GI50 (KM-20L2): > 100 µM (inactive)
- GI50 (A498): > 100 µM (inactive)
- GI50 (HCC 2998): > 100 µM (inactive)
- GI50 (SNB-75): 62.7 µM (inactive)
- GI50 (SK-MEL-5): > 100 µM (inactive)
- GI50 (HOP-18): > 100 µM (inactive)
- GI50 (SF-268): > 100 µM (inactive)
- GI50 (ACHN): > 100 µM (inactive)
- GI50 (NCI-H460): > 100 µM (inactive)
- GI50 (SF-295): > 100 µM (inactive)
- GI50 (SNB-19): > 100 µM (inactive)
- GI50 (CAKI-1): > 100 µM (inactive)
- GI50 (NCI-H23): > 100 µM (inactive)
